In ChEMBL document CHEMBL1150358, “Substituted benzyl-pyrimidines targeting thymidine monophosphate kinase of Mycobacterium tuberculosis: synthesis and in vitro anti-mycobacterial activity” (Bioorg Med Chem, 2008) one finds Activity and MIC50 data, which are given here for 28 molecules.

In brackets after ≈: the same amount, converted by molar mass. Activity calls are given as the source filed them. The calls are words filed in the database; no cut-off is given here.

One experiment relates to Mycobacterium tuberculosis. In words: Antimicrobial activity against Mycobacterium bovis BCG 1173P2 after 8 days. Format: functional. The note with it: variant bovis BCG.
`NC(=O)CCCCc1ccc(Cn2cc(Br)c(=O)[nH]c2=O)cc1`: the outcome was inactive.
Same read-out and setting: under `Cc1cn([C@H]2C[C@H](O)[C@@H](CO)O2)c(=O)[nH]c1=O` [DOXRIBTIMINE] stands “inactive”; under `NC(=O)CCCCCc1ccc(Cn2cc(Br)c(=O)[nH]c2=O)cc1`, “inactive”.
The same measure, in the same setting: under `CCCCc1ccc(Cn2cc(Cl)c(=O)[nH]c2=O)cc1` stands “inactive”.
The same measure, in the same setting: under `CCCCCCc1ccc(Cn2cc(Br)c(=O)[nH]c2=O)cc1` stands “inactive”.
With `Cc1cn(Cc2ccc(CCCCC(N)=O)cc2)c(=O)[nH]c1=O`, the outcome was inactive.
Same read-out and setting: the result for `CCCCCCc1ccc(Cn2cc(Cl)c(=O)[nH]c2=O)cc1` reads “inactive”.
Still for that read-out and setting: under `O=c1[nH]c(=O)n([C@H]2C[C@H](O)[C@@H](CO)O2)cc1Br` [BROXURIDINE] stands “inactive”; under `Cc1cn(Cc2ccc(Br)cc2)c(=O)[nH]c1=O`, “inactive”; under `CCCCc1ccc(Cn2cc(Br)c(=O)[nH]c2=O)cc1`, “inactive”.

Staying with this experiment, now noted: variant bovis BCG, 192 h.
On to `COC(=O)CCCc1ccc(Cn2cc(Cl)c(=O)[nH]c2=O)cc1`, for which the MIC50 is 260 µg/mL (≈ 772 µM).
Same read-out and setting: the result for `NC(=O)CCCc1ccc(Cn2cc(Br)c(=O)[nH]c2=O)cc1` reads 55 µg/mL (≈ 150 µM).
Molecule `O=C(O)CCCc1ccc(Cn2cc(Cl)c(=O)[nH]c2=O)cc1` displayed an MIC50 of 45 µg/mL (≈ 139 µM).
Regarding `NC(=O)CCCc1ccc(Cn2cc(Cl)c(=O)[nH]c2=O)cc1`, the MIC50 was 51 µg/mL (≈ 159 µM).
Regarding `O=C(O)CCCCCc1ccc(Cn2cc(Cl)c(=O)[nH]c2=O)cc1`, the MIC50 was found to be 125 µg/mL (≈ 356 µM).
The molecule `NC(=O)CCCc1ccc(Cn2ccc(=O)[nH]c2=O)cc1` yielded an MIC50 of 270 µg/mL (≈ 940 µM).
Same read-out and setting: the result for `Cc1cn(Cc2ccc(CCCCC(=O)O)cc2)c(=O)[nH]c1=O` reads 120 µg/mL (≈ 379 µM).
Molecule `NC(=O)CCCCCc1ccc(Cn2cc(Cl)c(=O)[nH]c2=O)cc1` came in with an MIC50 of 288 µg/mL (≈ 823 µM).
On the same count and under the same terms, the result for `Cc1cn(Cc2ccc(C#CCCCC(=O)O)cc2)c(=O)[nH]c1=O` reads 150 µg/mL (≈ 460 µM).
The same measure, in the same setting: under `O=C(O)CCCc1ccc(Cn2cc(Br)c(=O)[nH]c2=O)cc1` stands 50 µg/mL (≈ 136 µM); under `Cc1cn(Cc2ccc(CCCCO)cc2)c(=O)[nH]c1=O`, 365 µg/mL (≈ 1270 µM); under `O=C(O)CCCCc1ccc(Cn2cc(Cl)c(=O)[nH]c2=O)cc1`, 120 µg/mL (≈ 356 µM).
On the same count and under the same terms, under `COC(=O)CCCc1ccc(Cn2cc(Br)c(=O)[nH]c2=O)cc1` stands 180 µg/mL (≈ 472 µM); under `O=C(O)CCCCc1ccc(Cn2cc(Br)c(=O)[nH]c2=O)cc1`, 100 µg/mL (≈ 262 µM).
In the case of `Cc1cn(Cc2ccc(CCCCCC(N)=O)cc2)c(=O)[nH]c1=O`, the MIC50 worked out at 230 µg/mL (≈ 698 µM).
Take `O=C(O)CCCc1ccc(Cn2ccc(=O)[nH]c2=O)cc1`: the MIC50 turned out to be 225 µg/mL (≈ 780 µM).
In turn, `O=C(O)CCCCCc1ccc(Cn2cc(Br)c(=O)[nH]c2=O)cc1` gave an MIC50 of 80 µg/mL (≈ 202 µM).
`Cc1cn(Cc2ccc(CCCCCC(=O)O)cc2)c(=O)[nH]c1=O` returned an MIC50 of 195 µg/mL (≈ 590 µM).
